Each molecule was assayed against T1, mouse NPY-Y5 receptors (mNPY-Y5) (Mus musculus, UniProt O70342) (assay: Radioligand competition binding (125I-PYY) on membranes of HEK293 cells expressing recombinant mouse NPY-Y5 receptor). Details: displacement of 100 pM 125I-labeled PYY, 1 h at 22° C., read-out: NPY5 IC50.
T1 construct: The full-length cDNA which contains the mouse NPY-Y5 (mNPY-Y5) receptor coding was amplified from mouse brain cDNA; expressed in transfected cells
T1 sequence (O70342 1-466): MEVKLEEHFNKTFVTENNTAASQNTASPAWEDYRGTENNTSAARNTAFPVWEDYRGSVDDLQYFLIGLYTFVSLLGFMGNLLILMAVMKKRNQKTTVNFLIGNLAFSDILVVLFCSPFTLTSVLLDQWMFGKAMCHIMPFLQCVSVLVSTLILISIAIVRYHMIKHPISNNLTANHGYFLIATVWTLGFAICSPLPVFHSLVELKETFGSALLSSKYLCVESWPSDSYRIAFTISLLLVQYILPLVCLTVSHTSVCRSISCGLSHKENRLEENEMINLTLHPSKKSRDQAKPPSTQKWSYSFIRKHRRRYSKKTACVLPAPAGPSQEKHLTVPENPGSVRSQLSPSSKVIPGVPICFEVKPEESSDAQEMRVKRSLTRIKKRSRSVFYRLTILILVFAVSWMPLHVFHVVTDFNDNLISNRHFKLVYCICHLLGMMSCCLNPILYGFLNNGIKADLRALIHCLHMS
Source text: The full-length cDNA which contains the mouse NPY-Y5 (mNPY-Y5) receptor coding was amplified from mouse brain cDNA using specific primers, which were custom-made on the basis of published sequences, and employing Pfu DNA polymerase (Stratagene). The amplification product was subcloned into a mammalian expression vector pcDNA3 using EcoRI and XhoI restriction sites. Positive clones were sequenced; one clone, which contained the published sequence, was selected for preparing stable cell clones.
Human embryonic kidney 293 (HEK293) cells were transfected with 10 μg of mNPY5 DNA using Lipofectamine reagent (Gibco BRL) in accordance with the manufacturer's instructions. Two days after the transfection, the geneticin selection (1 mg/ml) was initiated and several stable clones were isolated. One of the clones was used for further pharmacological characterization.
Human embryonic kidney cells (HEK293) which express recombinant mouse NPY-Y5 receptors (mNPY-Y5) were disrupted by being frozen/thawed three times in hypotonic Tris buffer (5 mM, pH 7.4, 1 mM MgCl2), after which they were homogenized and centrifuged at 72 000 G for 15 minutes. The precipitate was washed twice with Tris buffer (pH 7.4) containing 25 mM MgCl2, 250 mM sucrose, 0.1 mM phenylmethylsulfonyl fluoride and 0.1 mM 1,10-phenanthroline, then resuspended in the same buffer and stored in aliquots at −80° C. The protein was determined by the Lowry method using bovine serum albumin (BSA) as the standard.
The competition binding analysis was carried out in 250 μl of 25 mM Hepes buffer (pH 7.4, 2.5 mM CaCl2, 1 mM MgCl2, 1% bovine serum albumin and 0.01% sodium azide) which 5 μg of protein, 100 pM ^125I-labeled peptide YY (PYY) and 10 μl of a DMSO solution containing increasing quantities of DMSO solution containing unlabeled test compound. After a one-hour incubation at 22° C., the bound ligand was separated from the unbound ligand by means of filtration through a glass fiber filter. Nonspecific binding was determined in the presence of 1 μM unlabeled PYY. Specific binding is defined as the difference between total binding and nonspecific binding. An IC50 value is defined as the concentration of the antagonist which displaces 50% of the ^125I-labeled […]. This concentration is determined by linear regression analysis following logit/log transformation of the binding values.

IC50 [nM]	SMILES
10	CCn1c2ccccc2c2cc(NC(=O)C3CC(=O)N(CCN4CCOCC4)C3)ccc21 (racemic) [rac. N-(9-Ethyl-9H-carbazol-3-yl)-1-(2-morpholin-4-ylethyl)-5-oxopyrrolidine-3-carboxamide]
32	Cc1ccc(N2CC(C(=O)Nc3ccc(Nc4nc(C)cc(C)n4)cc3)CC2=O)cc1 (racemic) [rac. N-[4-(4,6-Dimethylpyrimidin-2-ylamino)phenyl]-5-oxo-1-p-tolylpyrrolidine-3-carboxamide]
10	CCn1c2ccccc2c2cc(NC(=O)C3CC(=O)N(Cc4cccs4)C3)ccc21 (racemic) [rac. N-(9-Ethyl-9H-carbazol-3-yl)-5-oxo-1-thiophen-2-ylmethylpyrrolidine-3-carboxamide]
10	CCn1c2ccccc2c2cc(NC(=O)C3CC(=O)N(CCc4cccs4)C3)ccc21 (racemic) [rac. N-(9-Ethyl-9H-carbazol-3-yl)-5-oxo-1-(2-thiophen-2-ylethyl)pyrrolidine-3-carboxamide]
34	Cc1ccc(C)c(N2CC(C(=O)Nc3ccc(-c4ccccc4)cc3)CC2=O)c1 (racemic) [rac. N-(Biphenyl-4-yl)-1-(2,5-dimethylphenyl)-5-oxopyrrolidine-3-carboxamide]
30	CCn1c2ccccc2c2cc(NC(=O)C3CC(=O)N(c4ccc(C(C)C)cc4)C3)ccc21 (racemic) [rac. N-(9-Ethyl-9H-carbazol-3-yl)-1-(4-isopropylphenyl)-5-oxopyrrolidine-3-carboxamide]
20	CCn1c2ccccc2c2cc(NC(=O)C3CC(=O)N(Cc4ccc(OC)cc4OC)C3)ccc21 (racemic) [rac. N-(9-Ethyl-9H-carbazol-3-yl)-1-(2,4-dimethoxybenzyl)-5-oxopyrrolidine-3-carboxamide]
44	CCN(c1ccc(NC(=O)C2CC(=O)N(c3cccc(OC)c3)C2)cc1)c1nc(C)cc(C)n1 (racemic) [rac. N-{4-[(4,6-Dimethylpyrimidin-2-yl)ethylamino]phenyl}-1-(3-methoxyphenyl)-5-oxopyrrolidine-3-carboxamide]
34	CC(C)c1ccccc1N1CC(C(=O)Nc2ccc(N(c3ccccc3)C(C)C)cc2)CC1=O (racemic) [rac. N-[4-(Isopropylphenylamino)phenyl]-1-(2-isopropylphenyl)-5-oxopyrrolidine-3-carboxamide]
25	Cc1cc(C)nc(Nc2ccc(NC(=O)C3CC(=O)N(c4ccccc4C(C)C)C3)cc2)n1 (racemic) [rac. N-[4-(4,6-Dimethylpyrimidin-2-ylamino)phenyl]-1-(2-isopropylphenyl)-5-oxopyrrolidine-3-carboxamide]
30	CCn1c2ccccc2c2cc(NC(=O)C3CC(=O)N(c4ccc(C)cc4)C3)ccc21 (racemic) [rac. N-(9-Ethyl-9H-carbazol-3-yl)-5-oxo-1-p-tolylpyrrolidine-3-carboxamide]

From patent US7067549B2, “Pyrrolidone carboxamides” (Actelion Pharmaceuticals AG, priority 2001, dated 2006)
